Like-named read-outs stand apart in the source and are kept apart here.
What was measured:
[1] = test system: immobilization induced osteoporosis (femur bone area); test: Effect on immobilization induced osteoporosis (sciatic nerve section) in rats; type: in vivo, Sprague-Dawley rat; conditions: for Immobilized leg, femur total bone area: mean (SE), control 5.3 (0.6); for Femoral bone area in the immobilized leg / bone loss prevention (in words): sciatic nerve section
Protocol: Male Sprague-Dawley rats weighing 200±25 g were randomized by weight into groups and anesthetized with Hypnorm/Mebunat and Temgesic. A dorsolateral incision was made on the right or left hip through which the sciatic nerve was exposed, and a 0.5 cm section excised. The muscle and skin were sutured and the animal returned to its cage. The contralateral leg was left intact. The compound I dissolved in physiological saline was administered by subcutaneous injection daily at different dose levels from two days before the surgery until the day of 20 postneurectomy. Control animals received physiological saline. Animals double-labeled with fluorochrome at standardized time points were sacrificed at 21 days postneurectomy and their femora were removed. Femora were embedded in methylmetacrylate, sectioned, and stained. The metphyseal secondary spongiosa and the diaphyseal cortical bone of the femora were subjected to histomorphometric analysis. In control rats, femural total bone area decreased in the immobilized leg.

[2] = test system: PTH-stimulated bone resorption, mice calvaria; test: Inhibition of PTH-stimulated resorption of calvarial bone in vitro; type: cell-based, mouse; conditions: for Inhibition of bone resorption in vitro, mice calvaria (in words): except at very high, unphysiological concentrations, calcium release
Protocol: (§1) Newborn mice were labeled by a subcutaneous injection of ^45 Ca four days prior to sacrifice. Calvarial bone fragments were microdissected from the parietal bones, preincubated in culture medium with indomethacin, washed and then cultured for three days with and without the compound I. Bone resorption was stimulated by parathyroid hormone (PTH, 10 nM) and an inhibitory effect on this stimulated resorption was measured. […] For the determination of the binding of compound I to bone mineral, ^14 C-disodium clodronte tetrahydrate and hydroxyapatite crystals were incubated at room temperature in barbituric acid buffer at physiological pH in the absence and presence of the compound I in various concentrations. After two hours incubation, the mixture was centrifuged, and the percent of the total specifically bound radioactivity was measured from the supernatant. No binding of the compound I to hydroxyapatite was found at up to 500 μM concentration (Table 3).

[3] = Pharmacokinetics: urinary excretion of parent compound and bioavailability from urine; type: in vivo, rat; conditions: for Urinary excretion 0-24 h as parent compound / dose excreted at 24 h: single dose 114 mg/kg; for Urinary excretion 0-24 h as parent compound: 1440 min; for dose excreted at 24 h: urine, read-out: Urinary excretion 0-24 h as parent compound
Protocol: (§2) Pharmacokinetics of the compound [(2-pyridinylamino)methylidene]bisphosphonic acid tetraethylester was studied in rats. Minor amounts of an intravenous dose was excreted as a parent compound during 24 hours into urine supporting extensive metabolism as well. About half of the oral dose of the said compound was absorbed in rats.
(§3) Bioavailability was determined from the total amount of compound excreted into urine during 24 hours or from the serum concentration data at different time points after oral administration and intravenous administration. The urine and serum samples were analyzed for the test compound I with high pressure liquid chromatographic methods. […] Bioavailability of compound I assessed by serum concentration data was 44%.

[4] = test system: spontaneous bone resorption; test: Effect on spontaneous bone resorption assessed by urinary tetracycline excretion from prelabeled rats; type: in vivo, Sprague-Dawley rat; conditions: for Inhibition of tetracycline excretion: n=5, mean (SE); for Inhibition of excretion of radiolabeled tetracycline / spontaneous bone resorption (in words): rats, s.c.
Protocol: Male Sprague-Dawley rats were used. From the first week of life, the rats were injected subcutaneously with a solution containing 10 μCi/ml of (7-^3 H(N))tetracycline dissolved in physiological saline. The injections were performed twice weekly for 6 weeks. Every animal received a total amount of 20 μCi radiolabeled tetracycline. All animals were given normal diet for growing animals and water ad libitum. One week after the last injection of radiolabeled tetracycline, the rats were weighed and feeding with diet for adult animals was started. At fifth day the rats were randomized into groups and housed in individual metabolic cages. 24-h urine collections were performed for ten days. From the second day [(2-pyridinylamino)methylidene]bisphosphonic acid tetraethylester, compound I, dissolved in physiological saline was injected subcutaneously at different dose levels daily for six days. Control animals received physiological saline. Urine volume was measured and the radioactivity in urine samples was determined by liquid scintillation counting. The data was calculated as the ratio of treated/control at each day for the determination of maximal inhibition of tetracycline excretion.
Excretion of unmetabolized tetracycline into urine reflects its removal from bone during resorptive processes and thus enables the continual monitoring of bone resorption.

[5] = Pharmacokinetics: serum AUC and bioavailability from serum concentration data; type: in vivo; conditions: rat; for AUC(0-inf): single dose 114 mg/kg, read-out: AUC0->.infin.
Protocol: as §2, §3

[6] = Binding to bone mineral (hydroxyapatite crystals, 14C-clodronate); conditions: for Binding to bone mineral: two hours; for Binding to hydroxyapatite (in words): up to 500 μM, physiological pH, in vitro
Protocol: as §1

[7] = listed as [(2-pyridinylamino)methylidene]bisphosphonic acid tetraethylester

Q: Which “Immobilized leg, femur total bone area” value ([1]; 1 mg/kg s.c. daily, n=4) does the source give for `CCOP(=O)(OCC)C(Nc1ccccn1)P(=O)(OCC)OCC` [I, [(2-pyridinylamino)methylidene]bisphosphonic acid tetraethylester] here?
A: Its value is 6.0 (1.3) %.

Q: What about the “Immobilized leg, femur total bone area” value ([1]; 75 mg/kg s.c. daily, n=5) of the same compound?
A: The value was 24.5 (2.5) %.

Q: And the “Immobilized leg, femur total bone area” value ([1]; 200 mg/kg s.c. daily, n=7)?
A: The value was 35.5 (1.7) %.

Q: And the “Immobilized leg, femur total bone area” value ([1]; 37,5 mg/kg s.c. daily, n=5)?
A: The value was 17.3 (2.0) %.

Q: And the “Mineral apposition rate of cortical bone” value ([1]; rats, s.c., data not presented)?
A: The value was “No deleterious effects”.

Q: What about the “Femoral bone area in the immobilized leg / bone loss prevention (in words)” value ([1]; rats, s.c., listed as [(2-pyridinylamino)methylidene]bisphosphonic acid tetraethylester) of the same compound?
A: The value was “effective in preventing bone loss”.

Q: And the “Femoral bone area in the immobilized leg / bone loss prevention (in words)” value ([1]; rats, s.c., listed as compound I)?
A: The value was “increased dose-dependently femoral bone area in the immobilized leg”.

Q: What about the “Inhibition of PTH-stimulated resorption, 100 (PTH - x)/PTH” value (shortened to “Inhibition of PTH-stimulated resorption”) ([2]; 1 μmol/l, PTH 10 nM, three days culture) of the same compound?
A: Its value is “No inhibiton”.

Q: And the “Inhibition of PTH-stimulated resorption” value ([2]; 10 μmol/l, PTH 10 nM, three days culture)?
A: The value was “No inhibition”.

Q: And the “Inhibition of PTH-stimulated resorption” value ([2]; 100 μmol/l, PTH 10 nM, three days culture)?
A: Its value is “No inhibition”.

Q: And the inhibition at 1000 µM ([2]; Mus musculus, 72 h, 1000 μmol/l, PTH 10 nM, three days culture, (SE), read-out: Inhibition of PTH-stimulated resorption, 100 (PTH - x)/PTH)?
A: Its inhibition at 1000 µM is 12.9%.

Q: And the “Inhibition of bone resorption in vitro, mice calvaria (in words)” value [2]?
A: Its value is “no inhibition of resorption in vitro was shown except at very high, unphysiological concentrations”.

Q: What about the “Inhibition of bone resorption in vitro, mice calvaria (in words)” value [2, 7] of the same compound?
A: Its value is “No effect”.

Q: What about the “Urinary excretion 0-24 h as parent compound” value ([3]; i.v., 114 mg/kg) of the same compound?
A: The value was 13.6 % of dose.

Q: And the “Urinary excretion as a parent compound during 24 hours (in words)” value ([3]; intravenous dose, rats)?
A: Its value is “Minor amounts”.

Q: And the “Absorption of the oral dose (in words)” value ([3]; oral, rats)?
A: Its value is “About half”.

Q: What about the “Urinary excretion 0-24 h as parent compound” value ([3]; p.o., 114 mg/kg) of the same compound?
A: Its value is 7.8 % of dose.

Q: And the bioavailability at 24 h ([3]; rat, po, p.o. vs i.v., 114 mg/kg, urine 0-24 h, read-out: Bioavailability F from urinary excretion)?
A: The bioavailability at 24 h was 58%.

Q: And the dose excreted at 24 h ([3]; rat, iv, 114 mg/kg, i.v.)?
A: Its dose excreted at 24 h is 14%.

Q: And the dose excreted at 24 h ([3]; rat, po, 114 mg/kg, p.o.)?
A: The dose excreted at 24 h was < 10%.

Q: And the “Inhibition of tetracycline excretion” value ([4]; 1 mg/kg s.c. daily for six days)?
A: The value was 12.2 (6.4) %.

Q: And the “Inhibition of tetracycline excretion” value ([4]; 10 mg/kg s.c. daily for six days)?
A: The value was 19.8 (5.9) %.

Q: And the “Inhibition of tetracycline excretion” value ([4]; 100 mg/kg s.c. daily for six days)?
A: Its value is 50.0 (6.1) %.

Q: And the “Inhibition of tetracycline excretion” value ([4]; 200 mg/kg s.c. daily for six days)?
A: Its value is 72.9 (2.6) %.

Q: And the “Inhibition of excretion of radiolabeled tetracycline / spontaneous bone resorption (in words)” value [4, 7]?
A: Its value is “decreased spontaneous bone resorption”.

Q: And the “Inhibition of excretion of radiolabeled tetracycline / spontaneous bone resorption (in words)” value ([4]; listed as compound I)?
A: The value was “dose-dependently inhibited”.

Q: What about the AUC(0-inf) ([5]; iv) of the same compound?
A: Its AUC(0-inf) is 139 µg·h/mL.

Q: And the bioavailability ([5]; po, p.o. vs i.v., 114 mg/kg, read-out: Bioavailability F from serum concentration data (AUC))?
A: The bioavailability was 44%.

Q: And the AUC(0-inf) ([5]; po)?
A: The AUC(0-inf) was 60.7 µg·h/mL.

Q: And the “Binding to bone mineral” value ([6]; 5 μmol/l)?
A: Its value is “No binding”.

Q: And the “Binding to bone mineral” value ([6]; 100 μmol/l)?
A: Its value is “No binding”.

Q: What about the “Binding to bone mineral” value ([6]; 200 μmol/l) of the same compound?
A: The value was “No binding”.

Q: And the “Binding to bone mineral” value ([6]; 500 μmol/l)?
A: The value was “No binding”.

Q: What about the “Binding to hydroxyapatite (in words)” value [6, 7] of the same compound?
A: Its value is “did not show either any binding on hydroxyapatite crystals in vitro”.

Q: And the “Binding to hydroxyapatite (in words)” value ([6]; listed as compound I)?
A: Its value is “No binding”.
